Source: US20150246938A1, “NOVEL OLEFIN DERIVATIVE” (SHIONOGI & CO., LTD., priority 2011, published 2015)

Target: T1, recombinant human ACC2 (Homo sapiens, UniProt O00763)
T1 construct: a cDNA encoding human ACC2 (27-2458) was cloned from human kidney cDNA library (Clontech); His-tag (N); made in house; host or cells: Sf-9 insect cells (Bac-to-Bac baculovirus)
Assay: Measurement of inhibitory activity on human ACC2 (MALDI-TOF MS, acetyl CoA to malonyl CoA conversion)
Format: biochemical
Settings: inhibition activity on human ACC2, Table 79; read-out: IC50

T1 sequence (O00763 27-2458): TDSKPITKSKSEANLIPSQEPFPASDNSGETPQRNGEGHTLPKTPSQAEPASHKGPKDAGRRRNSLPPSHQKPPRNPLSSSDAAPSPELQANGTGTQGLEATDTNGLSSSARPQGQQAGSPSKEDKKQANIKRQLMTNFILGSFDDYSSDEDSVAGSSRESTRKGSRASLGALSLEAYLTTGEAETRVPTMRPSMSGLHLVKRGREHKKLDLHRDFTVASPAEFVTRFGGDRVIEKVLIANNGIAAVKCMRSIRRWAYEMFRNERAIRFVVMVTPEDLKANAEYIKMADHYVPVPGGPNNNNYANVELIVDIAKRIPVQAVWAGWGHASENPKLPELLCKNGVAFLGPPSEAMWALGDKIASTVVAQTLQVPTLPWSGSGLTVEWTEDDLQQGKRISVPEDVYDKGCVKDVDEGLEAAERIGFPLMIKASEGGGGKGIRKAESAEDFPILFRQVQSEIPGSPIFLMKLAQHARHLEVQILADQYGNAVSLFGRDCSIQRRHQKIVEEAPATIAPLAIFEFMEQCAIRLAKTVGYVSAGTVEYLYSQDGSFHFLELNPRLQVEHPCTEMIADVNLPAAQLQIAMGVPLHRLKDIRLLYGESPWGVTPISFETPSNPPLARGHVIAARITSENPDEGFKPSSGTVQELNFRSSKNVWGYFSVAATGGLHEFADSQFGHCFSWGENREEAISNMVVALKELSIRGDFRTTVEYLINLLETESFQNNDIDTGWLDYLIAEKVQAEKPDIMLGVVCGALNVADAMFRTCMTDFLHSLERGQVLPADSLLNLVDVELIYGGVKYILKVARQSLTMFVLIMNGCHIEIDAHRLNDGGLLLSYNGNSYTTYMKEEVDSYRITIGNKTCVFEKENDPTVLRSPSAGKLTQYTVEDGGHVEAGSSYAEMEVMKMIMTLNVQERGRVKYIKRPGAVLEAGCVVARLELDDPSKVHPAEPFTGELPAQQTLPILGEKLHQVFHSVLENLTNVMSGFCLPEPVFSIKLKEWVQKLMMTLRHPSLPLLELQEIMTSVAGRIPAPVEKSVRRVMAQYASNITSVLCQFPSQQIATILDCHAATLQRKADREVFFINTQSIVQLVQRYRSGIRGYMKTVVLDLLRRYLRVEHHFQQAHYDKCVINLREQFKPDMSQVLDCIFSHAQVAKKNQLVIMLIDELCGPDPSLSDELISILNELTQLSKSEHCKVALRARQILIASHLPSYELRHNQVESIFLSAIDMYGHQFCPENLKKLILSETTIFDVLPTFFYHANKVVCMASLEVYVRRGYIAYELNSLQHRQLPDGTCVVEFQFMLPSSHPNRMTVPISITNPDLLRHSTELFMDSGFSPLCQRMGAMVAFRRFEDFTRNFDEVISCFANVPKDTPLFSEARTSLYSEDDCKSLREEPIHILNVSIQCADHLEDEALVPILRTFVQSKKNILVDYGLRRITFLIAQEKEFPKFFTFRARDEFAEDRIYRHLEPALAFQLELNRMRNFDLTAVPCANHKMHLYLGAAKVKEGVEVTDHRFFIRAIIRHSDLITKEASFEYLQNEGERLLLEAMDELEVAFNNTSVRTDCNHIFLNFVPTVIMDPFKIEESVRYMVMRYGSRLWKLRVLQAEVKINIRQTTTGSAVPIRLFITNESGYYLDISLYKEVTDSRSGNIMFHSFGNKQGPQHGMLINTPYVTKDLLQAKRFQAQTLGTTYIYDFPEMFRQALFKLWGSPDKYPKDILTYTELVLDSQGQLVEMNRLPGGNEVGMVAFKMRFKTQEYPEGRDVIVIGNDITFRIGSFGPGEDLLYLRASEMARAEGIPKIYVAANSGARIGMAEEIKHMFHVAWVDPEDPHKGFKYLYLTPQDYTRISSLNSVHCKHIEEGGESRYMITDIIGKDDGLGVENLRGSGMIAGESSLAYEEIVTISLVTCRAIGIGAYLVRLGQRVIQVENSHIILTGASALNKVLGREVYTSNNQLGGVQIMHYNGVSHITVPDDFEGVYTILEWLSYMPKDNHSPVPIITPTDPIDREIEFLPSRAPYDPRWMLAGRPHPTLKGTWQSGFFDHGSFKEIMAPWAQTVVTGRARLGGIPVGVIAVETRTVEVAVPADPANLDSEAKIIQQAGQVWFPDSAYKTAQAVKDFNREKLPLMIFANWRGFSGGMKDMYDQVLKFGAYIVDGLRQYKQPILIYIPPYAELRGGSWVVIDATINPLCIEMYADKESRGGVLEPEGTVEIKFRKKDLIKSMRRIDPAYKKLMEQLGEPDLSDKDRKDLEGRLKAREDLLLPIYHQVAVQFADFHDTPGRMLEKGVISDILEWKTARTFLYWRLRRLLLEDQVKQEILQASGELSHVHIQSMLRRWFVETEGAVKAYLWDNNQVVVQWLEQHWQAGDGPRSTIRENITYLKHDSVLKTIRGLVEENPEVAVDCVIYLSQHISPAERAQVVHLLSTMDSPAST

SMILES | IC50 [nM]
CCCOc1ccc(Oc2ncc(/C=C/[C@H](C)NC(C)=O)s2)c(Cl)c1 [Compound I-2] | 16
CC(=O)N[C@@H](C)/C=C/c1cnc(Oc2ccc(OCC3CC3)cc2C#N)s1 [Compound I-6] | 78
CC(=O)N[C@@H](C)/C=C/c1cnc(Oc2cccc(OCC3CC3)c2Cl)s1 [Compound I-7] | 31
CC(=O)N[C@@H](C)/C=C/c1cnc(Oc2cccc(OC(C)C)c2C)s1 [Compound I-9] | 82
CCOc1ccc(Oc2ccc(/C=C/[C@H](C)NC(C)=O)cn2)c(Cl)c1 [Compound I-13] | 52
CC(=O)N[C@@H](C)/C=C/c1ccc(Oc2ccc(OCC3CC3)cc2Cl)nc1 [Compound I-14] | 6.9
CCOc1ccc(COc2ccc(/C=C/[C@H](C)NC(C)=O)cn2)cc1 [Compound I-15] | 71
CCOc1ccc(Oc2ccc(/C=C/[C@H](C)NC(C)=O)cn2)cc1 [Compound I-16] | 31
CC(=O)N[C@@H](C)/C=C/c1ccc(Oc2ccc(OCC3CC3)c(Cl)c2)nc1 [Compound I-23] | 5.2
CC(=O)N[C@@H](C)/C=C/c1ccc(Oc2ccc(NCC3CC3)c(Cl)c2)nc1 [Compound I-24] | 4.4
COc1ccc(Cl)c(Oc2ccc(/C=C/[C@H](C)NC(C)=O)cn2)c1 [Compound I-27] | 1200
COc1cc(Cl)cc(Oc2ccc(/C=C/[C@H](C)NC(C)=O)cn2)c1 [Compound I-28] | 97
COc1cccc(Oc2ccc(/C=C/[C@H](C)NC(C)=O)cn2)c1Cl [Compound I-29] | 94
CC(=O)N[C@@H](C)/C=C/c1ccc(Oc2ccc(N3CCCC3)cc2Cl)nc1 [Compound I-32] | 14
CC(=O)N[C@@H](C)/C=C/c1ccc(Oc2ccc(OCC3CC3)nc2)nc1 [Compound I-33] | 12
COc1cncc(Oc2ccc(/C=C/[C@H](C)NC(C)=O)cn2)c1 [Compound I-34] | 7100
CCOc1ccc(OCc2ccc(/C=C/[C@H](C)NC(C)=O)cn2)c(Cl)c1 [Compound I-35] | 1100
CC(=O)N[C@@H](C)/C=C/c1ccc(Oc2ccc(OCC(C)C)cc2Cl)nc1 [Compound I-36] | 6.5
CC(=O)N[C@@H](C)/C=C/c1ccc(Oc2ccc(OC(C)C)cc2Cl)nc1 [Compound I-37] | 37
CCCOc1ccc(Oc2ccc(/C=C/[C@H](C)NC(C)=O)cn2)c(Cl)c1 [Compound I-38] | 9.1

SMILES | IC50 [nM]
CC(=O)N[C@@H](C)/C=C/c1ccc(Oc2ccc(OC3CCC3)cc2Cl)nc1 [Compound I-39] | 11
CC(=O)N[C@@H](C)/C=C/c1ccc(Oc2cc(Cl)cc(OCC3CC3)c2)nc1 [Compound I-43] | 80
CCOc1cc(Cl)cc(Oc2ccc(/C=C/[C@H](C)NC(C)=O)cn2)c1 [Compound I-45] | 83
CC(=O)N[C@@H](C)/C=C/c1ccc(Oc2cccc(OC(C)C)c2Cl)nc1 [Compound I-47] | 25
CCOc1cccc(Oc2ccc(/C=C/[C@H](C)NC(C)=O)cn2)c1Cl [Compound I-48] | 37
CC(=O)N[C@@H](C)/C=C/c1ccc(Oc2cccc(OC(C)C)c2)nc1 [Compound I-49] | 72
CC(=O)N[C@@H](C)/C=C/c1cnc(Oc2ccc(OCC3CC3)cc2Cl)nc1 [Compound I-52] | 54
CC(=O)N[C@@H](C)/C=C/c1cnc(Oc2ccc(NC(=O)OC(C)(C)C)cc2Cl)nc1 [Compound I-53] | 940
CC(=O)N[C@@H](C)/C=C/c1cnc(Oc2ccc(NCC3CC3)cc2Cl)nc1 [Compound I-54] | 430
CC(=O)N[C@@H](C)/C=C/c1cnc(Oc2ccc(NC(C)C)cc2Cl)nc1 [Compound I-55] | 4500
CC(=O)N[C@@H](C)/C=C/c1ccc(Oc2ccc(OCC3CC3)cc2Cl)nn1 [Compound I-56] | 310
CC(=O)N[C@@H](C)/C=C/c1ccc(Oc2ccc(OCC3CC3)cc2Cl)cc1 [Compound I-57] | 2.2
CC(=O)N[C@@H](C)/C=C/c1cnc(N2CCc3cc(OCC4CC4)ccc32)s1 [Compound I-59] | 950
CCOc1ccc(C(F)(F)c2ccc(/C=C/[C@H](C)NC(C)=O)cn2)c(Cl)c1 [Compound I-62] | 310
CC(=O)N[C@@H](C)/C=C/c1cnn(Cc2ccc(OCC3CC3)cc2Cl)c1 [Compound I-63] | 830
CC(=O)N[C@@H](C)/C=C/c1cnn(Cc2ccc(OCC3CC3)cc2)c1 [Compound I-64] | 5900
CC(=O)N[C@@H](C)/C=C/c1cnn(CCc2ccc(OCC3CC3)cc2)c1 [Compound I-66] | 5700
CC(=O)N[C@@H](C)/C=C/c1cnn(Cc2ccc(OCC3CC3)cc2F)c1 [Compound I-67] | 1200
CC(=O)N[C@@H](C)/C=C/c1cnn(Cc2c(Cl)cc(OCC3CC3)cc2Cl)c1 [Compound I-69] | 470
CSCCC(=O)N[C@@H](C)/C=C/c1cnc(Oc2ccc(OCC3CC3)cc2Cl)s1 [Compound I-72] | 230

SMILES | IC50 [nM]
C[C@@H](/C=C/c1cnc(Oc2ccc(OCC3CC3)cc2Cl)s1)NC(=O)CC#N [Compound I-73] | 53
C[C@@H](/C=C/c1cnc(Oc2ccc(OCC3CC3)cc2Cl)s1)NC(=O)C1(C(N)=O)CC1 [Compound I-74] | 57
C[C@@H](/C=C/c1cnc(Oc2ccc(OCC3CC3)cc2Cl)s1)NC(=O)C1CC1 [Compound I-76] | 30
C[C@@H](/C=C/c1cnc(Oc2ccc(OCC3CC3)cc2Cl)s1)NC(=O)Cc1cccnc1 [Compound I-77] | 48
CC(=O)NCC(=O)N[C@@H](C)/C=C/c1cnc(Oc2ccc(OCC3CC3)cc2Cl)s1 [Compound I-78] | 550
C[C@@H](/C=C/c1cnc(Oc2ccc(OCC3CC3)cc2Cl)s1)NC(=O)CC(F)(F)F [Compound I-82] | 160
C[C@@H](/C=C/c1cnc(Oc2ccc(OCC3CC3)cc2Cl)s1)NC(=O)C1(C)CC1 [Compound I-83] | 48
C[C@@H](/C=C/c1cnc(Oc2ccc(OCC3CC3)cc2Cl)s1)NC(=O)C1CCOCC1 [Compound I-84] | 460
C[C@@H](/C=C/c1cnc(Oc2ccc(OCC3CC3)cc2Cl)s1)NC(=O)CCCN1CCCC1=O [Compound I-86] | 440
C[C@@H](/C=C/c1cnc(Oc2ccc(OCC3CC3)cc2Cl)s1)NC(=O)CCCn1cncn1 [Compound I-87] | 350
C[C@@H](/C=C/c1cnc(Oc2ccc(OCC3CC3)cc2Cl)s1)NC(=O)CCCN1CCCC1 [Compound I-88] | 890
COC(=O)CCCC(=O)N[C@@H](C)/C=C/c1cnc(Oc2ccc(OCC3CC3)cc2Cl)s1 [Compound I-94] | 140
C[C@@H](/C=C/c1cnc(Oc2ccc(OCC3CC3)cc2Cl)s1)NC(=O)C1(C#N)CC1 [Compound I-97] | 120
CC(C)COCC(=O)N[C@@H](C)/C=C/c1cnc(Oc2ccc(OCC3CC3)cc2Cl)s1 [Compound I-103] | 970
COCCOCC(=O)N[C@@H](C)/C=C/c1cnc(Oc2ccc(OCC3CC3)cc2Cl)s1 [Compound I-104] | 450
C[C@@H](/C=C/c1cnc(Oc2ccc(OCC3CC3)cc2Cl)s1)NC(=O)CN1C(=O)CCC1=O [Compound I-105] | 200
C[C@@H](/C=C/c1cnc(Oc2ccc(OCC3CC3)cc2Cl)s1)NC(=O)CCCCCCNC(=O)OC(C)(C)C [Compound I-106] | 440
COC(=O)c1ccn(CC(=O)N[C@@H](C)/C=C/c2cnc(Oc3ccc(OCC4CC4)cc3Cl)s2)n1 [Compound I-113] | 480
C[C@@H](/C=C/c1cnc(Oc2ccc(OCC3CC3)cc2Cl)s1)NC(=O)CC(N)=O [Compound I-116] | 150
CC(C)S(=O)(=O)NCCCCC(=O)N[C@@H](C)/C=C/c1cnc(Oc2ccc(OCC3CC3)cc2Cl)s1 [Compound I-117] | 38

Same assay, conditions: inhibition activity on human ACC2, Table 80; read-out: IC50

SMILES | IC50 [nM]
CC(C)S(=O)(=O)NCCCC(=O)N[C@@H](C)/C=C/c1cnc(Oc2ccc(OCC3CC3)cc2Cl)s1 [Compound I-119] | 61
C[C@@H](/C=C/c1cnc(Oc2ccc(OCC3CC3)cc2Cl)s1)NC(=O)Cc1ccncc1 [Compound I-122] | 150
C[C@@H](/C=C/c1cnc(Oc2ccc(OCC3CC3)cc2Cl)s1)NC(=O)Cn1ccnc1 [Compound I-123] | 180
CCN1CCN(CCC(=O)N[C@@H](C)/C=C/c2cnc(Oc3ccc(OCC4CC4)cc3Cl)s2)CC1 [Compound I-124] | 1400
C[C@@H](/C=C/c1cnc(Oc2ccc(OCC3CC3)cc2Cl)s1)NC(=O)CCO [Compound I-125] | 320
C[C@@H](/C=C/c1cnc(Oc2ccc(OCC3CC3)cc2Cl)s1)NC(=O)[C@H]1CNC(=O)O1 [Compound I-133] | 920
CC(C)S(=O)(=O)NCCC(=O)N[C@@H](C)/C=C/c1cnc(Oc2ccc(OCC3CC3)cc2Cl)s1 [Compound I-134] | 1800
CC(=O)Nc1cc(C(=O)N[C@@H](C)/C=C/c2cnc(Oc3ccc(OCC4CC4)cc3Cl)s2)ccn1 [Compound I-135] | 42
CCOC(=O)c1cc(C(=O)N[C@@H](C)/C=C/c2cnc(Oc3ccc(OCC4CC4)cc3Cl)s2)ccn1 [Compound I-136] | 12
Cc1ccc(-c2cc(C(=O)N[C@@H](C)/C=C/c3cnc(Oc4ccc(OCC5CC5)cc4Cl)s3)ccn2)o1 [Compound I-137] | 630
Cc1nc(C)c(-c2cc(C(=O)N[C@@H](C)/C=C/c3cnc(Oc4ccc(OCC5CC5)cc4Cl)s3)ccn2)s1 [Compound I-138] | 2300
C[C@@H](/C=C/c1cnc(Oc2ccc(OCC3CC3)cc2Cl)s1)NC(=O)c1ccnc(-c2ncco2)c1 [Compound I-139] | 66
C[C@@H](/C=C/c1cnc(Oc2ccc(OCC3CC3)cc2Cl)s1)NC(=O)c1cccc(C2=NCCO2)c1 [Compound I-143] | 800
C[C@@H](/C=C/c1cnc(Oc2ccc(OCC3CC3)cc2Cl)s1)NC(=O)c1cccc(-c2ncco2)c1 [Compound I-144] | 690
CC(=O)c1ccc(C(=O)N[C@@H](C)/C=C/c2cnc(Oc3ccc(OCC4CC4)cc3Cl)s2)s1 [Compound I-148] | 880
CCN1Cc2ccc(C(=O)N[C@@H](C)/C=C/c3cnc(Oc4ccc(OCC5CC5)cc4Cl)s3)cc2C1=O [Compound I-154] | 2700
